As usually defined, the viability is a read-out of living cells in per cent, often relative to untreated cells.

A short description of this data set: in vitro. To be noted: human, hela cells, % viability.
Regarding `CC(CNc1cc(=O)n2ccccc2n1)CN1CCCC1` (stereo not drawn) [CBK305270], the viability at 28.5 h, 10 µM came to 99.1%. The result for `COc1ccc(CN2CCCN(C(=O)c3ccc(C#N)cc3)CC2)cc1` [CBK305273] reads 91.4%; that for `O=C(c1cccc(O)c1)N1CCN(Cc2cn3ccsc3n2)CC1` [CBK305275], 76%; that for `CCOC(=O)C(CNC(=O)c1c(C)nn(C)c1C)Cc1ccccc1` (stereo not drawn) [CBK305276], 90%. To `CCn1ncc2c1CCCC2NC1CCN(c2ccccc2F)C1=O` (stereo not drawn) [CBK305279] belongs 108%; to `CCOc1cccc(CNC(=O)N2CCC(Cc3cnn(C)c3)C2)c1` (stereo not drawn) [CBK305280], 115%; to `COc1ccc(CN2CCCN(C(=O)c3cccc(C#N)c3)CC2)cc1` [CBK305281], 88.5%. Turning to `CCC(C)(NC(=O)c1ccn(-c2cc(C)ccc2OC)n1)C(=O)OC` (stereo not drawn) [CBK305282], the viability at 28.5 h, 10 µM was 78.7%. To `CC(C)OC(=O)Cc1nc(CN2CCc3sccc3C2C)cs1` (stereo not drawn) [CBK305284] belongs 85.3%. To `COCCn1cc(C(=O)N2CCOC3CCCCC32)c2ccccc21` (stereo not drawn) [CBK305288] belongs 113%; to `COCCn1cc(C(=O)N2CCCC2c2cc(C)on2)c2ccccc21` (stereo not drawn) [CBK305289], 90.4%. The result for `COCCN1CCCC(NS(=O)(=O)c2cccc(C(C)=O)c2)C1` (stereo not drawn) [CBK305290] reads 94.7%; that for `Cc1nc(C)n(CC2CCCN(CC(=O)NCc3ccccn3)C2)n1` (stereo not drawn) [CBK305291], 86.1%. With `CC(=O)Nc1cccc(-n2nnnc2SCC2CCCN(C)C2)c1` (stereo not drawn) [CBK305294], the viability at 28.5 h, 10 µM turned out to be 108%.

With `CCOc1cc(NC(=O)N2CCC(Cc3cnn(C)c3)C2)ccc1C` (stereo not drawn) [CBK305295], the viability at 28.5 h, 10 µM came out at 105%. Regarding `Cc1nc(C)c(C(=O)N2CCCC(C(=O)c3ccc(F)cc3)C2)s1` (stereo not drawn) [CBK305296], the viability at 28.5 h, 10 µM is 104%. The result for `Cn1cc(CCNC(=O)NC2CCN(Cc3ccccn3)CC2)cn1` [CBK305297] reads 102%; that for `CCOCCCC(=O)N1CCN(Cc2nnc3n2CCCCC3)CC1` [CBK305298], 90.9%. The result for `CC(C(=O)NC1(C#N)CCCCC1)N1CCOC(c2nccs2)C1` (stereo not drawn) [CBK305299] reads 80.9%; that for `CSC(C)C(=O)N(C)C1CCN(c2ncnc3ccccc23)CC1` (stereo not drawn) [CBK305300], 83.4%. As to `Cc1cccc(C(C)CNC(=O)N2CCC(Cc3cnn(C)c3)C2)c1` (stereo not drawn) [CBK305301], the viability at 28.5 h, 10 µM came to 96.9%. Take `CCCN(CC(=O)NCc1ccco1)Cc1nnc(-c2ccco2)o1` [CBK305302]: the viability at 28.5 h, 10 µM was 111%.

Consider `CC(C)(C)C(=O)Nc1ccc(F)c(C(=O)N2CCc3[nH]ncc3C2)c1` [CBK305303], for which the viability at 28.5 h, 10 µM is 104%. To `Cc1noc(C)c1CNS(=O)(=O)N1CCOC(c2ccccc2)C1` (stereo not drawn) [CBK305306] belongs 83.2%; to `CCOC1CCCN(C(=O)c2cccnc2Nc2cccc(F)c2)C1` (stereo not drawn) [CBK305307], 86.9%; to `Cc1nc(C)c(CCC(=O)N2CCCCC2Cn2cccn2)c(=O)[nH]1` (stereo not drawn) [CBK305310], 102%.

For the compound `CC(Oc1cccc(F)c1)C(=O)N(Cc1cccnc1)CC1CCCO1` (stereo not drawn) [CBK305313], the viability at 28.5 h, 10 µM worked out at 108%. Turning to `Cn1c(C2CC2)nc2c1CCN(Cc1cn3cc(Cl)ccc3n1)C2` [CBK305314], the viability at 28.5 h, 10 µM was 92.8%.

With `CCN(C(=O)Cc1cc(OC)ccc1Br)c1cccnc1` [CBK305318], the viability at 28.5 h, 10 µM was 97.7%.

As for `CC(NC(=O)CC1(N2CCOCC2)CCCC1)c1cccc(C#N)c1` (stereo not drawn) [CBK305320], the viability at 28.5 h, 10 µM worked out at 106%. For the compound `CC(NC(=O)N1CCCN(Cc2cccs2)CC1)c1nncn1C` (stereo not drawn) [CBK305322], the viability at 28.5 h, 10 µM came out at 80.3%. The result for `N#Cc1cccc(C(=O)N2CCCN(Cc3ccc(Cl)cc3)CC2)c1` [CBK305323] reads 95.9%. To `Cn1cc(CNCC2CCCN2c2cccnn2)c(-c2cccnc2)n1` (stereo not drawn) [CBK305326] belongs 96.2%.
